In patent US8349899B1 (Arrowhead Center, Inc., priority 2008, dated 2013):
pIC50: −log10 of the molar value. Read-outs that look alike come from different tables or passages of the source.

Experiments:
[1] = molecular target: T1, recombinant human EG5 motor domain (Homo sapiens, UniProt P52732); assay: microtubule-activated Eg5 ATPase assay (Cytoskeleton, Inc); assay type: biochemical; details: for pIC50: microtubule-activated ATPase activity of recombinant human EG5 motor domain; for inhibitory activity in the biochemical assay: Eg5 ATPase assay
T1 construct: recombinant human EG5 motor domain; purchased Cytoskeleton, Inc
T1 sequence (P52732 18-359 limits assumed): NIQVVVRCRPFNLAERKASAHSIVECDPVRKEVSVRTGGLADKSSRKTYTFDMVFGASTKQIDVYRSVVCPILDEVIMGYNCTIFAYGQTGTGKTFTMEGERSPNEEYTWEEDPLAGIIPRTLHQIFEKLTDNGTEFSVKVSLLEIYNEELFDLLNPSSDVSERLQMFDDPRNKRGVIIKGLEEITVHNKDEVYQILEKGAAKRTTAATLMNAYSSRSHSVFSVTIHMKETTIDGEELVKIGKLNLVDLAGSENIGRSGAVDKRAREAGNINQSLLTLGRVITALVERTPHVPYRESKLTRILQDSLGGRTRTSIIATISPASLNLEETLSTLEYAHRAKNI
Procedure: (§1) Biochemical- and cell-based assays were used to evaluate the inhibitory activities of the STLC analogs. Using a commercially available assay from Cytoskeleton, Inc, analogs were assayed for their ability to block the microtubule-activated ATPase activity of recombinant human EG5 motor domain. In parallel, HeLa cells were treated for four hours with a range of concentrations, and then fixed, stained for microtubules, and mitotic cells were scored for spindle bipolarity.

[2] = system: HeLa cervical adenocarcinoma cells; assay: bipolar spindle formation in HeLa cells; assay type: cell-based, human; details: for pIC50: read-out: Bipolar spindle formation IC50; for inhibitory activity in the cell-based assay: HeLa bipolar spindle formation
Procedure: as §1

[3] = system: U251; details: Central Nervous System U251; data previously determined; cited from earlier work
[4] = system: UO-31; details: Renal UO-31; data previously determined; cited from earlier work
[5] = system: SF-295; details: Central Nervous System SF-295; data previously determined; cited from earlier work
[6] = system: NCI-H226; details: Non-Small Cell Lung NCI-H226; data previously determined; cited from earlier work
[7] = system: SK-OV-3; details: Ovarian SK-OV-3; data previously determined; cited from earlier work
[8] = system: OVCAR-5; details: Ovarian OVCAR-5; data previously determined; cited from earlier work
[9] = system: NCI-H522; details: Non-Small Cell Lung NCI-H522; data previously determined; cited from earlier work
[10] = system: HCT-116; details: Colon HCT-116; data previously determined; cited from earlier work
[11] = Homo sapiens, HeLa cells treated with analog for 4 hours, scored for bipolar vs monopolar spindle formation

| Molecule | pIC50 [1] | pIC50 [2, 11] | inhibitory activity in the biochemical assay [1] | inhibitory activity in the cell-based assay [2] | further results |
| --- | --- | --- | --- | --- | --- |
| COc1ccc(C(SC[C@H](N)C(=O)NCCOCCN)(c2ccccc2)c2ccccc2)cc1 [Compound 4.2, (R)-2-amino-N-(2-(2-aminoethoxy)ethyl)-3-(((4-methoxyphenyl)diphenylmethyl)thio)propanamide] | 6.55 | 6.27 |  |  |  |
| C#CCNC(=O)[C@@H](N)CSC(c1ccccc1)(c1ccccc1)c1ccccc1 [Compound 3.5, (R)-2-amino-N-(prop-2-yn-1-yl)-3-(tritylthio)propanamide] | 6.31 | 6.12 |  |  |  |
| CC(=O)N[C@@H](CSC(c1ccccc1)(c1ccccc1)c1ccccc1)C(N)=O [Compound 3.6, (R)-2-acetamido-3-(tritylthio)propanamide] | < 4.00 | < 4.00 | no measurable activity | no measurable activity |  |
| COC(=O)[C@@H](N)CSC(c1ccccc1)(c1ccccc1)c1ccccc1 [Compound 3.2, (R)-methyl 2-amino-3-(tritylthio)propanoate] | 6.29 | 6.04 |  |  |  |
| N[C@@H](CSC(c1ccccc1)(c1ccccc1)c1ccccc1)C(=O)O [Compound 2.5, (R)-2-amino-3-(tritylthio)propanoic acid] |  | 6.18 |  |  | GI50 [3]: 1000 nM; GI50 [4]: 100 µM; GI50 [5]: 500 nM; GI50 [6]: 100 µM; GI50 [7]: 100 µM; GI50 [8]: 100 µM; GI50 [9]: 500 nM; GI50 [10]: 500 nM |
| N[C@@H](CSC(c1ccccc1)c1ccccc1)C(=O)O [Compound 2.9, (R)-2-amino-3-(benzhydrylthio)propanoic acid] | < 4.00 | < 4.00 | no measurable activity | no measurable activity |  |
| C#CCNC(=O)[C@@H](N)CSC(c1ccccc1)(c1ccccc1)c1ccc(OC)cc1 [Compound 4.0] | 6.51 | 6.36 |  |  |  |
| (R)-2-amino-3-(((4-methoxyphenyl)diphenylmethyl)thio)propanamide [Compound 3.9] |  |  | no measurable activity | no measurable activity | pIC50 ([2]; HeLa cells treated with analog for 4 hours, scored for bipolar vs monopolar spindle formation): < 4.00 |
| N[C@@H](CSCC1c2ccccc2-c2ccccc21)C(=O)O [Compound 2.7, (R)-3-(((9H-fluoren-9-yl)methyl)thio)-2-aminopropanoic acid] | < 4.00 | < 4.00 | no measurable activity | no measurable activity |  |
| COc1ccc(C(SC[C@@H](N)CO)(c2ccccc2)c2ccccc2)cc1 [Compound 1.3] |  |  |  |  | pIC50 ([2]; Homo sapiens, HeLa, 4 h): 6.70 |
| N[C@@H](COC(c1ccccc1)(c1ccccc1)c1ccccc1)C(=O)O [Compound 2.8, (S)-2-amino-3-(trityloxy)propanoic acid] | 6.12 | 6.07 |  |  |  |
| N[C@@H](CSC(c1ccccc1)(c1ccccc1)c1cccnc1)C(=O)O [Compound 3.4, (R)-2-amino-3-((diphenyl(pyridin-3-yl)methyl)thio)propanoic acid] | < 4.00 | < 4.00 | no measurable activity | no measurable activity |  |
| NC(=O)[C@@H](N)CSC(c1ccccc1)(c1ccccc1)c1ccccc1 [Compound 3.3, (R)-2-amino-3-(tritylthio)propanamide] | 6.27 | 6.17 |  |  |  |
| N[C@H](CO)CSC(c1ccccc1)(c1ccccc1)c1ccccc1 [Compound 1.1] |  |  |  |  | pIC50 ([2]; Homo sapiens, HeLa, 4 h): 6.24 |
| N[C@@H](CSC1c2ccccc2-c2ccccc21)C(=O)O [Compound 3.0, (R)-3-((9H-fluoren-9-yl)thio)-2-aminopropanoic acid] | < 4.00 | < 4.00 | no measurable activity | no measurable activity |  |
| CCCCNC(=O)[C@@H](N)CSC(c1ccccc1)(c1ccccc1)c1ccccc1 [Compound 3.8, (R)-2-amino-N-butyl-3-(tritylthio)propanamide] | 6.25 | 6.17 |  |  |  |
| CC(=O)N[C@@H](CSC(c1ccccc1)(c1ccccc1)c1ccccc1)C(=O)O [Compound 3.1, (R)-2-acetamido-3-(tritylthio)propanoic acid] | < 4.00 | < 4.00 | no measurable activity | no measurable activity |  |
